From ChEMBL document CHEMBL1629583, “Establishment of in vitro susceptibility testing methodologies and comparative activities of piperacillin in combination with the penem {beta}-lactamase inhibitor BLI-489” (2009)
Converted amounts (≈) assume the structure as drawn.

Columns and labels:
Assay type in all cases: functional
Burkholderia cepacia = assay: Antimicrobial activity against Burkholderia cepacia clinical isolate after 18 to 22 hrs by broth microdilution method
[1] = test system: Stenotrophomonas maltophilia; assay: Antimicrobial activity against Stenotrophomonas maltophilia clinical isolate after 18 to 22 hrs by broth microdilution method
Pseudomonas aeruginosa = assay: Antimicrobial activity against Pseudomonas aeruginosa clinical isolate after 18 to 22 hrs by broth microdilution method
Haemophilus influenzae [2] = assay: Antimicrobial activity against beta-lactamase-producing Haemophilus influenzae clinical isolate after 18 to 22 hrs by broth microdilution method
Haemophilus influenzae [3] = assay: Antimicrobial activity against beta-lactamase-negative Haemophilus influenzae clinical isolate after 18 to 22 hrs by broth microdilution method
[4] = test system: Haemophilus parainfluenzae; assay: Antimicrobial activity against Haemophilus parainfluenzae clinical isolate after 18 to 22 hrs by broth microdilution method
Moraxella catarrhalis = assay: Antimicrobial activity against Moraxella catarrhalis clinical isolate after 18 to 22 hrs by broth microdilution method
Bacteroides fragilis = assay: Antimicrobial activity against Bacteroides fragilis clinical isolate after 18 to 22 hrs by broth microdilution method
[5] = test system: Bacteroides thetaiotaomicron; assay: Antimicrobial activity against Bacteroides thetaiotaomicron clinical isolate after 18 to 22 hrs by broth microdilution method
Bacteroides uniformis = assay: Antimicrobial activity against Bacteroides uniformis clinical isolate after 18 to 22 hrs by broth microdilution method
Clostridium perfringens = assay: Antimicrobial activity against Clostridium perfringens clinical isolate after 18 to 22 hrs by broth microdilution method
[6] = test system: Peptostreptococcus anaerobius; assay: Antimicrobial activity against Peptostreptococcus anaerobius clinical isolate after 18 to 22 hrs by broth microdilution method
Parvimonas micra = assay: Antimicrobial activity against Peptostreptococcus micros clinical isolate after 18 to 22 hrs by broth microdilution method
Citrobacter koseri = assay: Antimicrobial activity against Citrobacter koseri clinical isolate after 18 to 22 hrs by broth microdilution method
Enterobacter cloacae [7] = assay: Antimicrobial activity against Enterobacter cloacae clinical isolate after 18 to 22 hrs by broth microdilution method
Escherichia coli [8] = assay: Antimicrobial activity against class A extended spectrum beta-lactamase- and class D OXA- producing Escherichia coli clinical isolate after 18 to 22 hrs by broth microdilution method
Escherichia coli [9] = assay: Antimicrobial activity against class A extended spectrum beta-lactamase- producing Escherichia coli clinical isolate after 18 to 22 hrs by broth microdilution method
Escherichia coli [10] = assay: Antimicrobial activity against AmpC beta-lactamase-producing Escherichia coli clinical isolate after 18 to 22 hrs by broth microdilution method
Citrobacter freundii [11] = assay: Antimicrobial activity against AmpC beta-lactamase-producing Citrobacter freundii clinical isolate after 18 to 22 hrs by broth microdilution method
Klebsiella aerogenes [12] = assay: Antimicrobial activity against AmpC beta-lactamase-producing Enterobacter aerogenes clinical isolate after 18 to 22 hrs by broth microdilution method
Enterobacter cloacae [13] = assay: Antimicrobial activity against AmpC beta-lactamase-producing Enterobacter cloacae clinical isolate after 18 to 22 hrs by broth microdilution method
Serratia marcescens [14] = assay: Antimicrobial activity against AmpC beta-lactamase-producing Serratia marcescens clinical isolate after 18 to 22 hrs by broth microdilution method
Klebsiella aerogenes [15] = assay: Antimicrobial activity against Enterobacter aerogenes clinical isolate after 18 to 22 hrs by broth microdilution method
Citrobacter freundii [16] = assay: Antimicrobial activity against Citrobacter freundii clinical isolate after 18 to 22 hrs by broth microdilution method
Klebsiella pneumoniae [17] = assay: Antimicrobial activity against Klebsiella pneumoniae clinical isolate after 18 to 22 hrs by broth microdilution method
Klebsiella pneumoniae [18] = assay: Antimicrobial activity against class A extended spectrum beta-lactamase- producing Klebsiella pneumoniae clinical isolate after 18 to 22 hrs by broth microdilution method
Klebsiella pneumoniae [19] = assay: Antimicrobial activity against class A extended spectrum beta-lactamase- and class D OXA- producing Klebsiella pneumoniae clinical isolate after 18 to 22 hrs by broth microdilution method
Klebsiella pneumoniae [20] = assay: Antimicrobial activity against AmpC- producing Klebsiella pneumoniae clinical isolate after 18 to 22 hrs by broth microdilution method
Klebsiella oxytoca = assay: Antimicrobial activity against Klebsiella oxytoca clinical isolate after 18 to 22 hrs by broth microdilution method
Serratia marcescens [21] = assay: Antimicrobial activity against Serratia marcescens clinical isolate after 18 to 22 hrs by broth microdilution method
Morganella morganii = assay: Antimicrobial activity against Morganella morganii clinical isolate after 18 to 22 hrs by broth microdilution method
Proteus mirabilis = assay: Antimicrobial activity against Proteus mirabilis clinical isolate after 18 to 22 hrs by broth microdilution method
Proteus vulgaris = assay: Antimicrobial activity against Proteus vulgaris clinical isolate after 18 to 22 hrs by broth microdilution method
Providencia rettgeri = assay: Antimicrobial activity against Providencia rettgeri clinical isolate after 18 to 22 hrs by broth microdilution method
Providencia stuartii = assay: Antimicrobial activity against Providencia stuartii clinical isolate after 18 to 22 hrs by broth microdilution method
[22] = test system: Acinetobacter calcoaceticus; assay: Antimicrobial activity against Acinetobacter calcoaceticus clinical isolate after 18 to 22 hrs by broth microdilution method
Acinetobacter baumannii = assay: Antimicrobial activity against Acinetobacter baumannii clinical isolate after 18 to 22 hrs by broth microdilution method
[23] = test system: Acinetobacter haemolyticus; assay: Antimicrobial activity against Acinetobacter haemolyticus clinical isolate after 18 to 22 hrs by broth microdilution method
Acinetobacter johnsonii = assay: Antimicrobial activity against Acinetobacter johnsonii clinical isolate after 18 to 22 hrs by broth microdilution method
Acinetobacter junii = assay: Antimicrobial activity against Acinetobacter junii clinical isolate after 18 to 22 hrs by broth microdilution method
Acinetobacter lwoffii = assay: Antimicrobial activity against Acinetobacter lwoffii clinical isolate after 18 to 22 hrs by broth microdilution method

C[C@@H](O)[C@H]1C(=O)N2C(C(=O)O)=C(SCCNC=N)C[C@H]12 [IMIPENEM ANHYDROUS]
MIC50 (Burkholderia cepacia): 8 µg/mL (≈ 26.7 µM) | MIC90 (Burkholderia cepacia): 16 µg/mL (≈ 53.4 µM) | MIC [1]: > 32 µg/mL | MIC50 [1]: > 32 µg/mL | MIC90 [1]: > 32 µg/mL | MIC50 (Pseudomonas aeruginosa): 2 µg/mL (≈ 6.68 µM) | MIC90 (Pseudomonas aeruginosa): 32 µg/mL (≈ 107 µM) | MIC50 (Haemophilus influenzae [2]): 0.5 µg/mL (≈ 1.67 µM) | MIC90 (Haemophilus influenzae [2]): 0.5 µg/mL (≈ 1.67 µM) | MIC (Haemophilus influenzae [3]): 0.12 µg/mL (≈ 0.401 µM) | MIC50 (Haemophilus influenzae [3]): 0.05 µg/mL (≈ 0.167 µM) | MIC90 (Haemophilus influenzae [3]): 1 µg/mL (≈ 3.34 µM) | MIC50 [4]: 0.25 µg/mL (≈ 0.835 µM) | MIC90 [4]: 0.5 µg/mL (≈ 1.67 µM) | MIC (Moraxella catarrhalis): ≤ 0.03 µg/mL | MIC50 (Moraxella catarrhalis): ≤ 0.03 µg/mL | MIC90 (Moraxella catarrhalis): 0.06 µg/mL (≈ 0.2 µM) | MIC50 (Bacteroides fragilis): 0.25 µg/mL (≈ 0.835 µM) | MIC90 (Bacteroides fragilis): 0.5 µg/mL (≈ 1.67 µM) | MIC [5]: 0.25 µg/mL (≈ 0.835 µM) | MIC50 [5]: 0.25 µg/mL (≈ 0.835 µM) | MIC90 [5]: 1 µg/mL (≈ 3.34 µM) | MIC (Bacteroides uniformis): 0.12 µg/mL (≈ 0.401 µM) | MIC50 (Bacteroides uniformis): 0.12 µg/mL (≈ 0.401 µM) | MIC90 (Bacteroides uniformis): 0.25 µg/mL (≈ 0.835 µM) | MIC50 (Clostridium perfringens): 0.06 µg/mL (≈ 0.2 µM) | MIC90 (Clostridium perfringens): 0.06 µg/mL (≈ 0.2 µM) | MIC50 [6]: 0.03 µg/mL (≈ 0.1 µM) | MIC90 [6]: 0.06 µg/mL (≈ 0.2 µM) | MIC50 (Parvimonas micra): 0.06 µg/mL (≈ 0.2 µM) | MIC90 (Parvimonas micra): 0.12 µg/mL (≈ 0.401 µM) | MIC50 (Citrobacter koseri): 0.12 µg/mL (≈ 0.401 µM) | MIC90 (Citrobacter koseri): 0.12 µg/mL (≈ 0.401 µM) | MIC50 (Enterobacter cloacae [7]): 0.5 µg/mL (≈ 1.67 µM) | MIC90 (Enterobacter cloacae [7]): 1 µg/mL (≈ 3.34 µM) | MIC (Escherichia coli [8]): 0.12 µg/mL (≈ 0.401 µM) | MIC50 (Escherichia coli [8]): 0.12 µg/mL (≈ 0.401 µM) | MIC90 (Escherichia coli [8]): 0.25 µg/mL (≈ 0.835 µM) | MIC (Escherichia coli [9]): 0.12 µg/mL (≈ 0.401 µM) | MIC50 (Escherichia coli [9]): 0.12 µg/mL (≈ 0.401 µM) | MIC90 (Escherichia coli [9]): 0.5 µg/mL (≈ 1.67 µM) | MIC (Escherichia coli [10]): 0.12 µg/mL (≈ 0.401 µM) | MIC50 (Escherichia coli [10]): 0.12 µg/mL (≈ 0.401 µM) | MIC90 (Escherichia coli [10]): 0.25 µg/mL (≈ 0.835 µM) | MIC (Citrobacter freundii [11]): 0.5 µg/mL (≈ 1.67 µM) | MIC50 (Citrobacter freundii [11]): 0.5 µg/mL (≈ 1.67 µM) | MIC90 (Citrobacter freundii [11]): 2 µg/mL (≈ 6.68 µM) | MIC (Klebsiella aerogenes [12]): 0.5 µg/mL (≈ 1.67 µM) | MIC50 (Klebsiella aerogenes [12]): 0.5 µg/mL (≈ 1.67 µM) | MIC90 (Klebsiella aerogenes [12]): 2 µg/mL (≈ 6.68 µM) | MIC (Enterobacter cloacae [13]): 0.5 µg/mL (≈ 1.67 µM) | MIC50 (Enterobacter cloacae [13]): 0.5 µg/mL (≈ 1.67 µM) | MIC90 (Enterobacter cloacae [13]): 2 µg/mL (≈ 6.68 µM) | MIC (Serratia marcescens [14]): 0.5 µg/mL (≈ 1.67 µM) | MIC50 (Serratia marcescens [14]): 0.5 µg/mL (≈ 1.67 µM) | MIC90 (Serratia marcescens [14]): 2 µg/mL (≈ 6.68 µM) | MIC50 (Klebsiella aerogenes [15]): 1 µg/mL (≈ 3.34 µM) | MIC90 (Klebsiella aerogenes [15]): 2 µg/mL (≈ 6.68 µM) | MIC50 (Citrobacter freundii [16]): 1 µg/mL (≈ 3.34 µM) | MIC90 (Citrobacter freundii [16]): 1 µg/mL (≈ 3.34 µM) | MIC50 (Klebsiella pneumoniae [17]): 0.25 µg/mL (≈ 0.835 µM) | MIC90 (Klebsiella pneumoniae [17]): 0.5 µg/mL (≈ 1.67 µM) | MIC50 (Klebsiella pneumoniae [18]): 0.25 µg/mL (≈ 0.835 µM) | MIC90 (Klebsiella pneumoniae [18]): 0.5 µg/mL (≈ 1.67 µM) | MIC50 (Klebsiella pneumoniae [19]): 0.25 µg/mL (≈ 0.835 µM) | MIC90 (Klebsiella pneumoniae [19]): 0.5 µg/mL (≈ 1.67 µM) | MIC50 (Klebsiella pneumoniae [20]): 1 µg/mL (≈ 3.34 µM) | MIC90 (Klebsiella pneumoniae [20]): 16 µg/mL (≈ 53.4 µM) | MIC50 (Klebsiella oxytoca): 0.25 µg/mL (≈ 0.835 µM) | MIC90 (Klebsiella oxytoca): 0.5 µg/mL (≈ 1.67 µM) | MIC50 (Serratia marcescens [21]): 1 µg/mL (≈ 3.34 µM) | MIC90 (Serratia marcescens [21]): 2 µg/mL (≈ 6.68 µM) | MIC50 (Morganella morganii): 4 µg/mL (≈ 13.4 µM) | MIC90 (Morganella morganii): 4 µg/mL (≈ 13.4 µM) | MIC50 (Proteus mirabilis): 2 µg/mL (≈ 6.68 µM) | MIC90 (Proteus mirabilis): 4 µg/mL (≈ 13.4 µM) | MIC50 (Proteus vulgaris): 2 µg/mL (≈ 6.68 µM) | MIC90 (Proteus vulgaris): 4 µg/mL (≈ 13.4 µM) | MIC50 (Providencia rettgeri): 2 µg/mL (≈ 6.68 µM) | MIC90 (Providencia rettgeri): 2 µg/mL (≈ 6.68 µM) | MIC50 (Providencia stuartii): 2 µg/mL (≈ 6.68 µM) | MIC90 (Providencia stuartii): 2 µg/mL (≈ 6.68 µM) | MIC50 [22]: 1 µg/mL (≈ 3.34 µM) | MIC90 [22]: 32 µg/mL (≈ 107 µM) | MIC50 (Acinetobacter baumannii): 1 µg/mL (≈ 3.34 µM) | MIC90 (Acinetobacter baumannii): 32 µg/mL (≈ 107 µM) | MIC50 [23]: 0.06 µg/mL (≈ 0.2 µM) | MIC90 [23]: 0.5 µg/mL (≈ 1.67 µM) | MIC50 (Acinetobacter johnsonii): 0.06 µg/mL (≈ 0.2 µM) | MIC90 (Acinetobacter johnsonii): 0.5 µg/mL (≈ 1.67 µM) | MIC50 (Acinetobacter junii): 0.06 µg/mL (≈ 0.2 µM) | MIC90 (Acinetobacter junii): 0.5 µg/mL (≈ 1.67 µM) | MIC50 (Acinetobacter lwoffii): 0.06 µg/mL (≈ 0.2 µM) | MIC90 (Acinetobacter lwoffii): 0.5 µg/mL (≈ 1.67 µM)
